From ChEMBL document CHEMBL2384988, “Discovery of 2-{3-[2-(1-isopropyl-3-methyl-1H-1,2-4-triazol-5-yl)-5,6-dihydrobenzo[f]imidazo[1,2-d][1,4]oxazepin-9-yl]-1H-pyrazol-1-yl}-2-methylpropanamide (GDC-0032): a β-sparing phosphoinositide 3-kinase inhibitor with high unbound exposure and robust in vivo antitumor activity” (J Med Chem, 2013)
In brackets after ≈: the same amount, converted by molar mass.

What was measured:
[1] = Oral bioavailability in mouse; format: ADME, organism-based; settings: in vivo
[2] = Plasma protein binding in human; format: ADME, cell-free; settings: read-out: PPB (converted)
[3] = Plasma protein binding in rat; format: ADME, cell-free; settings: read-out: PPB (converted)
[4] = target: Serine/threonine-protein kinase mTOR (Homo sapiens, UniProt P42345); assay: Inhibition of mTOR (unknown origin)
[5] = target: DNA-dependent protein kinase catalytic subunit (Homo sapiens, UniProt P78527); assay: Inhibition of DNA-dependent protein kinase (unknown origin)
[6] = target: Phosphatidylinositol 4-phosphate 3-kinase C2 domain-containing subunit alpha (Homo sapiens, UniProt O00443); assay: Inhibition of PI3KC2alpha (unknown origin)
PC-3 = assay: Cytotoxicity against human PC3 cells; format: functional, cell-based
[7] = Oral bioavailability in Sprague-Dawley rat; format: ADME, organism-based; settings: in vivo
[8] = Plasma clearance in Sprague-Dawley rat; format: ADME, organism-based
[9] = target: Phosphatidylinositol 3-kinase catalytic subunit type 3 (Homo sapiens, UniProt Q8NEB9); assay: Inhibition of human VPS34
Chain of Phosphatidylinositol 3-kinase catalytic subunit type 3 (Q8NEB9 whole entry): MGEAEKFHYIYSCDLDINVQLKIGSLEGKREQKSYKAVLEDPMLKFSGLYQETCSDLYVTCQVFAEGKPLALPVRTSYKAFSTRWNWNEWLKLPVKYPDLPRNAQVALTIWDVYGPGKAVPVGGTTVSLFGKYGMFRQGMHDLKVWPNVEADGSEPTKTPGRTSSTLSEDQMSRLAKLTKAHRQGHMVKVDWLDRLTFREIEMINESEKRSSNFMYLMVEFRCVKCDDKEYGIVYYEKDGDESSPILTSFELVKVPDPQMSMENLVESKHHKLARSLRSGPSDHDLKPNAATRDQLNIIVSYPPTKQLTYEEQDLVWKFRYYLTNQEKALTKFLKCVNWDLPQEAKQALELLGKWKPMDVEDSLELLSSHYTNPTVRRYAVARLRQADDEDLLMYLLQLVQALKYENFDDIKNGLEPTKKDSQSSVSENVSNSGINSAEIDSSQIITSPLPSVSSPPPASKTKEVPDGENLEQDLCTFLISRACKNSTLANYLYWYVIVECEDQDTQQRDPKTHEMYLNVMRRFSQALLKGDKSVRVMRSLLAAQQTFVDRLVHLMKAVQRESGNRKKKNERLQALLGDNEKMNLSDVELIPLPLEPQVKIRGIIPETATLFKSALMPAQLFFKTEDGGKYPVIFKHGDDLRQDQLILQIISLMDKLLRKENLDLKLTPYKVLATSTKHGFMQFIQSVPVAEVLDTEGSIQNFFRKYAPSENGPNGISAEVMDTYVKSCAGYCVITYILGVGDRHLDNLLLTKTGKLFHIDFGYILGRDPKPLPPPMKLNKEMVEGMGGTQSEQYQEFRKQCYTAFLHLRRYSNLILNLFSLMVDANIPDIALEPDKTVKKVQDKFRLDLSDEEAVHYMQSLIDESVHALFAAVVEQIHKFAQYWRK

Mus musculus [10] = assay: In vivo inhibition of PI3Kalpha in human MCF7-neo/Her2 cells xenografted in nude mouse assessed as reduction in AKT phosphorylation at S473 at 2.8 mg/kg, po measured after 1 hr; format: functional; parameters: scale not given: the % may be the effect or the level left
Mus musculus [11] = assay: Toxicity in nude mouse xenografted with human MCF7-neo/Her2 cells assessed as body weight loss relative to vehicle-treated control; format: organism-based
[12] = target: Phosphatidylinositol 4-phosphate 3-kinase C2 domain-containing subunit beta (Homo sapiens, UniProt O00750); assay: Inhibition of PI3KC2beta (unknown origin)
Chain of Phosphatidylinositol 4-phosphate 3-kinase C2 domain-containing subunit beta (O00750 whole entry, the tested form may be a part): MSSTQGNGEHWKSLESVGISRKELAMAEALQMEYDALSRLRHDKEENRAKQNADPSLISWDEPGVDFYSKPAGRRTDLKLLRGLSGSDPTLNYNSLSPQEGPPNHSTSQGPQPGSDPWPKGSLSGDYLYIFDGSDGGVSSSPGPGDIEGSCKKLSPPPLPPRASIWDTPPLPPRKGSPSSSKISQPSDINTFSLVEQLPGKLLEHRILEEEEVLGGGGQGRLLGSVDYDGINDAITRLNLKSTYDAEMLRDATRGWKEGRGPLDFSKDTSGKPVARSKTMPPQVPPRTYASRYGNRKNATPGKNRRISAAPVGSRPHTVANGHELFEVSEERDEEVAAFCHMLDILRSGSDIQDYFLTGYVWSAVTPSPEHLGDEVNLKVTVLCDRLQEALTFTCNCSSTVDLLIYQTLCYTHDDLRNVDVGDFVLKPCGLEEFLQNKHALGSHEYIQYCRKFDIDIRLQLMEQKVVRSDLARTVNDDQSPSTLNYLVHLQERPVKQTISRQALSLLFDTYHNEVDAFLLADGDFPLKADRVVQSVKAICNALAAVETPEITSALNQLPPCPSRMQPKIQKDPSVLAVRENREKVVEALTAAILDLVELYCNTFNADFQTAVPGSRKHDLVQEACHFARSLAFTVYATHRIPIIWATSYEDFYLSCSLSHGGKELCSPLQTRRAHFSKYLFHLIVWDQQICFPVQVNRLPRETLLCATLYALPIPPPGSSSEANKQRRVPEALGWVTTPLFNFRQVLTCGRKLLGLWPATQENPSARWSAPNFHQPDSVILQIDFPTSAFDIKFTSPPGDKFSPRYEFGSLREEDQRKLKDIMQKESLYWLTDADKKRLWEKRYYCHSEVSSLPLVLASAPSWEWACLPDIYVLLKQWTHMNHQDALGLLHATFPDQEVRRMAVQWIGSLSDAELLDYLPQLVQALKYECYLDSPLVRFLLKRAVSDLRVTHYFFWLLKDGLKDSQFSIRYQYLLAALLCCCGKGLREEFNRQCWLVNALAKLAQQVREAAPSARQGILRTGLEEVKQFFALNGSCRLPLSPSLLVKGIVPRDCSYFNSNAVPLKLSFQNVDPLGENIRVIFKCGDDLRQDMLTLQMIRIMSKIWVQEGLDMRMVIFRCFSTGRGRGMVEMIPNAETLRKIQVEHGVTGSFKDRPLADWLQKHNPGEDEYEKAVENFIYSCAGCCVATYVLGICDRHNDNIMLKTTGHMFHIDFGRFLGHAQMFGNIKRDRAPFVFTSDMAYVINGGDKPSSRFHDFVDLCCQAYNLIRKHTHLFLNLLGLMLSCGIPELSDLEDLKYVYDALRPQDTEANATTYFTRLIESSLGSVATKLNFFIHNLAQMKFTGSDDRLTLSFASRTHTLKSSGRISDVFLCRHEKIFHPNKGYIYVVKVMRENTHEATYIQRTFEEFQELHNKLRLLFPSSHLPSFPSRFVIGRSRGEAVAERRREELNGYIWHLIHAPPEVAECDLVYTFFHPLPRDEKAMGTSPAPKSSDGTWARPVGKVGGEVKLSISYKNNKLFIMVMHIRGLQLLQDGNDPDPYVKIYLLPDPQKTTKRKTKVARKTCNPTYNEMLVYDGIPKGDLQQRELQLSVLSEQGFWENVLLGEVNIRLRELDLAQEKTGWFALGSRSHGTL

Mus musculus [13] = assay: Unbound AUC in nude mouse at 1 mg/kg, iv and 25 mg/kg, po; format: ADME, organism-based; settings: in vivo
[14] = (§1) AUCtotal in nude mouse at 1 mg/kg, iv and 25 mg/kg, po; format: ADME, organism-based, Plasma; settings: nude, plasma
Mus musculus [15] = assay: Unbound clearance in nude mouse at 1 mg/kg, iv and 25 mg/kg, po; format: ADME, organism-based; settings: in vivo
Plasma = assay: (§2) Plasma protein binding in mouse by equilibrium dialysis; format: ADME, cell-free
[16] = Plasma clearance in nude mouse at 1 mg/kg, iv and 25 mg/kg, po; format: ADME, organism-based
[17] = Kinetic solubility of the compound; format: physicochemical; settings: read-out: Kinetic_solubility
[18] = Intrinsic clearance in mouse liver microsomes after 1 hr by LC-MS/MS analysis; format: ADME, Microsome; settings: read-out: CLH
[19] = target: T1, Phosphatidylinositol 4,5-bisphosphate 3-kinase catalytic subunit delta isoform (Homo sapiens) (UniProt O00329); settings: 1 uM
T1 sequence (whole entry): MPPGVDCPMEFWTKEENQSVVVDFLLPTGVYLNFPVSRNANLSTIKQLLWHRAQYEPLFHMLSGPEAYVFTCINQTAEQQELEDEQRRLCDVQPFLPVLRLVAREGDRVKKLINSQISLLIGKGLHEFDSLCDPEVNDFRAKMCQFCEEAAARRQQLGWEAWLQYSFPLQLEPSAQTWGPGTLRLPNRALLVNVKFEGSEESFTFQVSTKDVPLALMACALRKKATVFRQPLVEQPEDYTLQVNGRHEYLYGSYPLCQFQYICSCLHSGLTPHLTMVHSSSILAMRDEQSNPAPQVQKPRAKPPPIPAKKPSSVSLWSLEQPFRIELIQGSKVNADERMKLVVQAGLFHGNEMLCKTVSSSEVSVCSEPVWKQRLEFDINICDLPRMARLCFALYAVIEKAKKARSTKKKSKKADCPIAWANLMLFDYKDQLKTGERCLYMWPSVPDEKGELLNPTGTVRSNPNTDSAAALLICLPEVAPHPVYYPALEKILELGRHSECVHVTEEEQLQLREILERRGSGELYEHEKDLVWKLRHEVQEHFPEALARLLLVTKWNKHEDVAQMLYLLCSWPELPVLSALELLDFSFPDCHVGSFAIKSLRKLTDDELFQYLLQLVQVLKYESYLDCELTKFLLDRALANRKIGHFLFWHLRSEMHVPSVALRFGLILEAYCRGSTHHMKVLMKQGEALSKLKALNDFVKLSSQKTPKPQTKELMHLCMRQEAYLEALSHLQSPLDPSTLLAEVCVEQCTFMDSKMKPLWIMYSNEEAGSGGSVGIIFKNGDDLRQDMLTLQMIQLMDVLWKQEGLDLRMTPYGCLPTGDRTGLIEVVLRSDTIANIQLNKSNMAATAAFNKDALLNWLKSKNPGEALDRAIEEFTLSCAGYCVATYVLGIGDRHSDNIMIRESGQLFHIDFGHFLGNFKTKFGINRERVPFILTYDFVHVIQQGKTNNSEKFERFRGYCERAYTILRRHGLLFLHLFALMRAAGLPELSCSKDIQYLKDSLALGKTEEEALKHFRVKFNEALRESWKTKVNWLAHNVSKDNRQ
Description: Inhibition of PI3Kdelta (unknown origin) at 1 uM

[20] = target: T2, Phosphatidylinositol 4,5-bisphosphate 3-kinase catalytic subunit alpha isoform (Homo sapiens, UniProt P42336); settings: 1 uM
T2 sequence (P42336 whole entry, canonical isoform): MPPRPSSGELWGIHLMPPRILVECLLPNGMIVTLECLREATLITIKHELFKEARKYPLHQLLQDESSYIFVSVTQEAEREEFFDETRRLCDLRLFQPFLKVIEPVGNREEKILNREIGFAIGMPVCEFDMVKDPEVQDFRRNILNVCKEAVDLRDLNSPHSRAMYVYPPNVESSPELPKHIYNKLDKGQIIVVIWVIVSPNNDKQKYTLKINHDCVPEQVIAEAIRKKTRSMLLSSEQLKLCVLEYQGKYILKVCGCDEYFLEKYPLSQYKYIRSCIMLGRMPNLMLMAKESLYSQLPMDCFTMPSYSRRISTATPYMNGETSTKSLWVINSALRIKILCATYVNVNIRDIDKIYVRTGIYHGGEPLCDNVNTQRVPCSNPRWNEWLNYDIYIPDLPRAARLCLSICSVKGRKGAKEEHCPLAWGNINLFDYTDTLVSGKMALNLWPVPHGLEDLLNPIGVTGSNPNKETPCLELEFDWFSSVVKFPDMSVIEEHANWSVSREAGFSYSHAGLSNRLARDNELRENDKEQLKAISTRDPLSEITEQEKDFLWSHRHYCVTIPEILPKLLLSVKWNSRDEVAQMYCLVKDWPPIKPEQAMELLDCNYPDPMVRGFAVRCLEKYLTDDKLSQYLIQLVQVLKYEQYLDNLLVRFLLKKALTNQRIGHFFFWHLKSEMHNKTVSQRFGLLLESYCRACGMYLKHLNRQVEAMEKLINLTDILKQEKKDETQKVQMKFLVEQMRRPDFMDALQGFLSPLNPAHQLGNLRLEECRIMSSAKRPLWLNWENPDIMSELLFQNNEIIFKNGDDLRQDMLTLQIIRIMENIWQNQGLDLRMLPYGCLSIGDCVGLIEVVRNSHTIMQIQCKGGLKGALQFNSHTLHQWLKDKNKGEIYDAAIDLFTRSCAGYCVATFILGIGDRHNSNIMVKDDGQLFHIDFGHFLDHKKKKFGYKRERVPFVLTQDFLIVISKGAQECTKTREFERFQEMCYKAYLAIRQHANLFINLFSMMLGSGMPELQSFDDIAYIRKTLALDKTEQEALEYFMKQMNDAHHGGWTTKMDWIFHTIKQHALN
Description: Inhibition of PI3Kalpha (unknown origin) at 1 uM

cells = settings: Homo sapiens
Description: Cytotoxicity against human MCF7-neo/Her2 cells after 3 to 4 days by CellTitre-Glo assay

animal or person [21] = settings: Homo sapiens, po, 480 h, read-out: TGI
Description: Antitumor activity against human MCF7-neo/Her2 cells xenografted in nude mouse at 22.5 mg/kg, po qd for 20 days relative to vehicle-treated control

animal or person [22] = settings: Homo sapiens, po, 480 h, read-out: TGI; remark: listed apart in the source
Description: Antitumor activity against human MCF7-neo/Her2 cells xenografted in nude mouse at 11.25 mg/kg, po qd for 20 days relative to vehicle-treated control

[23] = target: T2, Phosphatidylinositol 4,5-bisphosphate 3-kinase catalytic subunit alpha isoform
Description: Inhibition of PI3Kalpha in human MCF7-neo/Her2 cells assessed as reduction of AKT phosphorylation at S473

[24] = target: T2, Phosphatidylinositol 4,5-bisphosphate 3-kinase catalytic subunit alpha isoform; remark: listed apart in the source
Description: Inhibition of PI3Kalpha (unknown origin) assessed as 3,4,5-inositoltriphosphate formation after 30 mins by fluorescence polarization assay

Mus musculus [25] = assay: Unbound AUC in nude mouse at 100 mg/kg, po; format: ADME, organism-based; parameters: dose 100 mg/kg, route oral; settings: in vivo
[26] = AUCtotal in nude mouse at 100 mg/kg, po; format: ADME, organism-based; parameters: time AUCmax, dose 100 mg/kg, route oral; settings: plasma
Mus musculus [27] = assay: as §1; format: ADME, organism-based, Plasma; settings: in vivo
[28] = as §2; format: ADME, cell-free; settings: read-out: PPB (converted)

SMILES: Cc1nc(-c2cn3c(n2)-c2ccc(-c4cnn(C(C)(C)C(N)=O)c4)cc2OCC3)n(C(C)C)n1 [TASELISIB]
- bioavailability [1]: 100%
- fraction unbound [2]: 0.24
- fraction unbound [3]: 0.02
- Ki [4]: 1200 nM
- IC50 [5]: > 4800 nM
- IC50 [6]: > 10000 nM
- EC50 (PC-3): 571 nM
- bioavailability [7]: 99%
- clearance [8]: 1.8 mL/min/kg
- IC50 [9]: 374 nM
- Activity (Mus musculus [10]): 59%
- Activity (Mus musculus [11]): < 10%
- IC50 [12]: 292 nM
- fAUC (Mus musculus [13]): 42 µM·h
- AUC [14]: 388 µM·h
- CL free (Mus musculus [15]): 25 mL/min/kg
- PPB (Plasma): 89.3%
- clearance [16]: 2.7 mL/min/kg
- solubility kinetic [17]: 33.1 µM (≈ 15.2 µg/mL)
- CLint scaled [18]: 41.1 mL/min/kg
- inhibition [19]: 97.9%
- inhibition [20]: 98.6%
- IC50 (cells): 25 nM
- inhibition in vivo at 22.5 mg/kg (animal or person [21]): 123%
- inhibition in vivo at 11.25 mg/kg (animal or person [22]): 103%

SMILES: CC(C)n1ncnc1-c1cn2c(n1)-c1ccc(-c3cnn(CCO)c3)cc1OCC2
- solubility kinetic [17]: 5.1 µM (≈ 2.07 µg/mL)
- CLint scaled [18]: 42.9 mL/min/kg
- IC50 [23]: 5.4 nM
- Ki [24]: 0.17 nM
- IC50 (cells): 92 nM

SMILES: CS(=O)(=O)N1CCN(Cc2cc3nc(-c4cccc5[nH]ncc45)nc(N4CCOCC4)c3s2)CC1 [PICTILISIB]
- Activity (Mus musculus [11]): < 10%
- fAUC (Mus musculus [25]): 3.5 µM·h
- AUC [26]: 80.3 µM·h

SMILES: CC(C)n1ncnc1-c1cn2c(n1)-c1ccc(-c3cn[nH]c3)cc1OCC2
- solubility kinetic [17]: < 1 µM
- CLint scaled [18]: 550 mL/min/kg
- Ki [24]: 0.31 nM
- IC50 (cells): 218 nM

SMILES: Cc1nc(-c2cn3c(n2)-c2ccc(-c4cnn(CCO)c4)cc2OCC3)n(C(C)C)n1
- fAUC (Mus musculus [13]): 5.2 µM·h
- AUC (Mus musculus [27]): 291 µM·h
- CL free (Mus musculus [15]): 83 mL/min/kg
- fraction unbound [28]: 0.018
- CLint scaled [18]: 68.1 mL/min/kg
- IC50 [23]: 4.5 nM
- IC50 (cells): 138 nM

SMILES: CC(C)n1ncnc1-c1nc2c(s1)CCOc1cc(-c3cnn(CCO)c3)ccc1-2
- fAUC (Mus musculus [25]): 0.55 µM·h
- AUC [26]: 275 µM·h
- fAUC (Mus musculus [13]): 0.22 µM·h
- AUC [14]: 112 µM·h
- CL free (Mus musculus [15]): 4750 mL/min/kg
- fraction unbound [28]: 0.002
- IC50 (cells): 195 nM

SMILES: OCCn1cc(-c2ccc3c(c2)OCCn2cc(-c4ncnn4CC(F)(F)F)nc2-3)cn1
- solubility kinetic [17]: 7.6 µM (≈ 3.39 µg/mL)
- CLint scaled [18]: 28 mL/min/kg
- IC50 [23]: 2.9 nM
- Ki [24]: < 1 nM
- IC50 (cells): 66 nM

SMILES: CC(C)n1ncnc1-c1cn2c(n1)-c1ccc(-c3cnn(CC(C)(C)O)c3)cc1OCC2
- fAUC (Mus musculus [13]): 2.7 µM·h
- AUC (Mus musculus [27]): 156 µM·h
- CL free (Mus musculus [15]): 282 mL/min/kg
- fraction unbound [28]: 0.017
- solubility kinetic [17]: 12.4 µM (≈ 5.38 µg/mL)
- CLint scaled [18]: 44.3 mL/min/kg
- IC50 [23]: 9.4 nM
- Ki [24]: 0.14 nM
- IC50 (cells): 81 nM

SMILES: Cc1nc(-c2cn3c(n2)-c2ccc(-c4cnn(CCO)c4)cc2OCC3)n(C)n1
- solubility kinetic [17]: 2.4 µM (≈ 0.939 µg/mL)
- CLint scaled [18]: 100 mL/min/kg
- Ki [24]: 2.8 nM
- IC50 (cells): 1400 nM

SMILES: Cc1nc(-c2cn3c(n2)-c2ccc(-c4cnn(C5CN(C(=O)[C@H](C)O)C5)c4)cc2OCC3)n(C(C)C)n1
- solubility kinetic [17]: 78.2 µM (≈ 39.3 µg/mL)
- CLint scaled [18]: 23 mL/min/kg
- IC50 [23]: 0.93 nM
- Ki [24]: 0.34 nM
- IC50 (cells): 102 nM

SMILES: Cc1nc(-c2cn3c(n2)-c2ccc(-c4cnn(CCN5CCOCC5)c4)cc2OCC3)n(C(C)C)n1
- solubility kinetic [17]: 52.3 µM (≈ 25.6 µg/mL)
- CLint scaled [18]: 89.4 mL/min/kg
- IC50 [23]: 35 nM
- Ki [24]: 0.3 nM
- IC50 (cells): 248 nM

SMILES: Cc1n[nH]c(-c2cn3c(n2)-c2ccc(-c4cnn(CCO)c4)cc2OCC3)n1
- solubility kinetic [17]: 95.8 µM (≈ 36.2 µg/mL)
- Ki [24]: 21.1 nM
- IC50 (cells): > 10000 nM

SMILES: Cc1nc(-c2cn3c(n2)-c2ccc(-c4cnn(C)c4)cc2OCC3)n(C(C)C)n1
- solubility kinetic [17]: 2 µM (≈ 0.779 µg/mL)
- CLint scaled [18]: 82 mL/min/kg
- IC50 [23]: 0.71 nM
- Ki [24]: 0.29 nM
- IC50 (cells): 157 nM

SMILES: Cc1nc(-c2cn3c(n2)-c2ccc(-c4cnn(C5CN(CCO)C5)c4)cc2OCC3)n(C(C)C)n1
- solubility kinetic [17]: 109 µM (≈ 51.7 µg/mL)
- CLint scaled [18]: 58 mL/min/kg
- IC50 [23]: 1.4 nM
- Ki [24]: 0.11 nM
- IC50 (cells): 120 nM
